In patent US10793567B2, “Bicyclic inhibitors of histone deacetylase” (Rodin Therapeutics, Inc., priority 2017, dated 2020):

Tests used:
[1] = molecular target: HDAC2 (Homo sapiens (Human), UniProt Q92769); test: HDAC2 enzymatic assay (Caliper LabChip, peptide deacetylation); type: biochemical; settings: 17 hours, 25° C.
Method: The following describes an assay protocol for measuring the deacetylation of a peptide substrate by the enzymes HDAC2 or HDAC1. Enzyme, substrate, and cofactors are combined in a well of a microtiter plate and incubated for […] at 25° C. At the end of the incubation, the reaction is quenched by the addition of an SDS-containing buffer. Substrate and product are separated and quantified electrophoretically using the microfluidic-based LabChip 3000 Drug Discovery System from Caliper Life Sciences. The peptide substrate used in this assay is FAM-TSRHK(AC)KL-CONH2 (FAM is carboxyfluorescein). Peptide should be >98% purity by Capillary Electrophoresis. • 1. To a well of a 384-well plate, add 5 μL of 2× enzyme buffer. Using Labcyte Echo 550, add 100 nl compound. Enzyme and compound may be pre-incubated at this time if desired. • 2. Add 5 μL of 2× substrate buffer. • 3. Incubate plate at 25° C. for 17 hours. • 4. Terminate reaction by adding 40 μL of 1.55× stop buffer. • 5. Create job on a Caliper LabChip® 3000 Drug Discovery System. • 6. […]
Substrate and product peptides present in each sample are separated electrophoretically using the LabChip 3000 capillary electrophoresis instrument. As substrate and product peptides are separated, two peaks of fluorescence are observed. Change in the relative fluorescence intensity of the substrate and product peaks is the parameter measured, reflecting enzyme activity. Capillary electrophoregramms (RDA acquisition files) are analyzed using HTS Well Analyzer software (Caliper Life Sciences). The […] in each sample is determined as the product to sum ratio (PSR): P/(S+P), where P is the peak height of the product peptide and S is the peak height of the substrate peptide. For each compound, enzyme activity is measured at various concentrations (12 concentrations of compound spaced by 3× dilution intervals). […]
The IC50 values of inhibitors are determined by fitting the inhibition curves (Pinh versus inhibitor concentration) by 4 parameter sigmoidal dose-response model using XLfit 4 software (IBDS). […]

[2] = molecular target: HDAC1 (Homo sapiens (Human), UniProt Q13547); test: HDAC1 enzymatic assay (Caliper LabChip, peptide deacetylation); type: biochemical; settings: 17 hours, 25° C.
Sequence of HDAC1 (Q13547 whole entry): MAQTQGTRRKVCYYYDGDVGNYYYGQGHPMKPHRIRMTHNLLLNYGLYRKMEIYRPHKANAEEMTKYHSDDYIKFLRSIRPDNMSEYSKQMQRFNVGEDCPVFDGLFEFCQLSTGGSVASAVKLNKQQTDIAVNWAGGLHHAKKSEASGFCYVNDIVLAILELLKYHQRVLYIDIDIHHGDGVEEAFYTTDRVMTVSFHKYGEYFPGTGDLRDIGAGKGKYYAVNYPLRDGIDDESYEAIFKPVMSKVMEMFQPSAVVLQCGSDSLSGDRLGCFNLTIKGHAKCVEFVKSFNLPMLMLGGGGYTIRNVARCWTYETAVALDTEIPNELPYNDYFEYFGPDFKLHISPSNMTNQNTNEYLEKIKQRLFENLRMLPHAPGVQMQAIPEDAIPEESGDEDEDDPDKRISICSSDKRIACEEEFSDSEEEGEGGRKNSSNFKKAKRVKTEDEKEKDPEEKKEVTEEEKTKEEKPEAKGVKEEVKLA
Method: The following describes an assay protocol for measuring the deacetylation of a peptide substrate by the enzymes HDAC2 or HDAC1. Enzyme, substrate, and cofactors are combined in a well of a microtiter plate and incubated for […] at 25° C. At the end of the incubation, the reaction is quenched by the addition of an SDS-containing buffer. Substrate and product are separated and quantified electrophoretically using the microfluidic-based LabChip 3000 Drug Discovery System from Caliper Life Sciences. The peptide substrate used in this assay is FAM-TSRHK(AC)KL-CONH2 (FAM is carboxyfluorescein). Peptide should be >98% purity by Capillary Electrophoresis. • 1. To a well of a 384-well plate, add 5 μL of 2× enzyme buffer. Using Labcyte Echo 550, add 100 nl compound. Enzyme and compound may be pre-incubated at this time if desired. • 2. Add 5 μL of 2× substrate buffer. • 3. Incubate plate at 25° C. for 17 hours. • 4. Terminate reaction by adding 40 μL of 1.55× stop buffer. • 5. Create job on a Caliper LabChip® 3000 Drug Discovery System. • 6. Load the plate and start electrophoresis using blue laser (480 nm) for excitation and green CCD (520 nm) for detection (CCD2). Reaction time=17 hours; Reaction temperature=25° C.
1% DMSO (from compound) 1 μM FAM-TSRHK(AC)KL-CONH2 5 nM HDAC Enzyme (specific activity may vary from lot-to-lot, and enzyme concentration may need to be adjusted to yield˜10-20% conversion of substrate to product).
Substrate and product peptides present in each sample are separated electrophoretically using the LabChip 3000 capillary electrophoresis instrument. As substrate and product peptides are separated, two peaks of fluorescence are observed. Change in the relative fluorescence intensity of the substrate and product peaks is the parameter measured, reflecting enzyme activity. Capillary electrophoregramms (RDA acquisition files) are analyzed using HTS Well Analyzer software (Caliper Life Sciences). The […] in each sample is determined as the product to sum ratio (PSR): P/(S+P), where P is the peak height of the product peptide and S is the peak height of the substrate peptide. For each compound, enzyme activity is measured at various concentrations (12 concentrations of compound spaced by 3× dilution intervals). Negative control samples (0%-inhibition in the absence of inhibitor) and positive control samples (100%-inhibition, in the presence of 20 mM EDTA) are assembled in replicates of four and are used to calculate %-inhibition values for each compound at each concentration. Percent inhibition (Pinh) is determined using following equation: Pinh=(PSR0%−PSRinh)/(PSR0%−PSR100%)*100, where PSRinh is the product sum ratio in the presence of inhibitor, PSR0% is the average product sum ration in the absence of inhibitor and PSR100% is the average product sum ratio in 100%-inhibition control samples.
The IC50 values of inhibitors are determined by fitting the inhibition curves (Pinh versus inhibitor concentration) by 4 parameter sigmoidal dose-response model using XLfit 4 software (IBDS).
In the table, “A” indicates a […] of between 0.1 μM and 0.5 μM and “B” a Kd value of greater than 0.5 μM and less than or equal to 5.0 μM.

[3] = tested on: human erythroid progenitors (CFU-E, BFU-E); test: Erythroid CFU assay (colony forming cell assay, bone marrow); type: cell-based; settings: 14 days in culture
Method: Compounds were tested to evaluate the potential effects on human erythroid and myeloid progenitors using colony forming cell assays. Clonogenic progenitors of human erythroid (CFU-E, BFU-E), granulocyte-monocyte (CFU-GM) and multipotential (CFU-GEMM) lineages were assessed in a semi-solid methylcellulose-based media formulation containing rhlL-3 (10 ng/mL), rhGM-SCF (10 ng/mL), rhSCF (50 ng/mL) and Epo (3 U/mL).
Normal human bone marrow light density cells derived from normal bone marrow (NorCal Biologics, California), were stored in the gaseous phase of liquid nitrogen (−152° C.) until required for the assay. On the day of the experiment, the cells were thawed rapidly, the contents of each vial was diluted in 10 mL of Iscove's modified Dulbecco's medium containing 10% fetal bovine serum (IMDM+10% FBS) and washed by centrifugation (approximately 1200 r.p.m. for 10 minutes, room temperature). The supernatant was discarded and the cell pellets resuspended in a known volume of IMDM+10% FBS. A cell count (3% glacial acetic acid) and viability assessment (trypan blue exclusion test) was performed for the bone marrow sample.
On the day of the experiment, the compounds were dissolved in DMSO to a stock concentration of 10 mM. Serial dilutions were prepared from the stock concentration to achieve concentrations of 2 and 0.4 mM. When added to the methylcellulose-based media at 1:1000 (v/v), the final test concentrations of 10, 2 and 0.4 μM were achieved. Additionally, 5-FU was evaluated at 1.0, 0.1 and 0.01 μg/mL.
Clonogenic progenitors of the human erythroid (CFU-E and BFU-E) and myeloid (CFU-GM) lineages were set up in the methylcellulose-based media formulations described above. All compounds were added to the medium to give the final desired concentrations (10, 2 and 0.4 μM). 5-Fluorouracil (Sigma Aldrich) was used as a positive control for progenitor proliferation (inhibition of colony growth) and was introduced to the human bone marrow cultures at 1.0, 0.1, and 0.01 μg/mL. Solvent control cultures (containing no compound but 0.1% DMSO) as well as standard controls (containing no compound and no DMSO) were also initiated.
Human myeloid and erythroid progenitor assays were initiated at 2.0×10^4 cells per culture. Following 14 days in culture, myeloid and erythroid colonies were assessed microscopically and scored by trained personnel. The colonies were divided into the following categories based on size and morphology: CFU-E, BFU-E, CFU-GM and CFU-GEMM.
The mean±one standard deviation of three replicate cultures was calculated for progenitors of each category (CFU-E, BFU-E, etc.). Two-tailed t-tests were performed to assess if there was a difference in the number of colonies generated between solvent control and treated cultures. Due to the potential subjectivity of colony enumeration, a p value of less than 0.01 is deemed significant. To calculate the concentration of 50% inhibition of colony growth (IC50) for each compound, a dose response curve was generated plotting the log of the compound concentration versus the percentage of control colony growth using XLfit software (IDBS). The concentration of 50% inhibition of colony growth (IC50) was calculated based on the sigmoid curve fit using Dose-Response, One-Site Model formula: y=A+[(B−A)/(1+((C/x)^D))], where A=the initial value (baseline response), B=maximum response, C=center (drug concentration that provokes a response halfway between A and B) and D=slope of the curve at midpoint. Further, plots and additional dose response curves were generated using GraphPad Prism 7.0.
Erythroid (CFU-E and BFU-E), myeloid (CFU-GM) and multi-potential (CFU-GEMM) colony enumeration was performed by trained personnel. The distribution of colony types as well as general colony and cellular morphology was analyzed. For statistical analysis colony numbers in compound treated cultures were compared to the solvent control cultures. […]

Sequence of HDAC2 (Q92769 whole entry): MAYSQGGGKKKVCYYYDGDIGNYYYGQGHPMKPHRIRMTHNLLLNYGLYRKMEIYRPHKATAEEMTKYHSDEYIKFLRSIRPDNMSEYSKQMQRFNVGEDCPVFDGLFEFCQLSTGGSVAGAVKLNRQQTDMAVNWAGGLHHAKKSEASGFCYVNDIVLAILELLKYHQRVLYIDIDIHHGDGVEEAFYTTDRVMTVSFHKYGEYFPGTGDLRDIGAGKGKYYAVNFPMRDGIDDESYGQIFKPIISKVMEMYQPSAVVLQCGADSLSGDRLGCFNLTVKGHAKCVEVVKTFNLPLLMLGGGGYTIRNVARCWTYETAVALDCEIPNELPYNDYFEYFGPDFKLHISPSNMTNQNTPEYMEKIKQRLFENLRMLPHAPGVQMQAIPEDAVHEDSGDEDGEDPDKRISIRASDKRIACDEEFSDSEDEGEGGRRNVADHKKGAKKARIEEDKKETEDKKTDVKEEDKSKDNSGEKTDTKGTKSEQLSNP

Row | Structure (SMILES) | IC50 [1] | IC50 [2] | Erythroid % control @ 10 uM dose [3]
1 | CCc1ncc2c(n1)CN(C(=O)Nc1nc(-c3ccc(F)cc3)ccc1N)C2 [Compound 17] | 0.5 to 5 µM | 0.5 to 5 µM | 59.6%
2 | CCc1ncc2c(n1)CN(C(=O)Nc1nc(-c3cccs3)ccc1N)C2 [Compound 3] |  | 0.5 to 5 µM | 46.6%
3 | Nc1ccc(-c2ccc(F)cc2)nc1NC(=O)N1Cc2cn(C3COC3)nc2C1 [Compound 1] |  | 0.5 to 5 µM | 37%
4 | COCCn1cc2c(n1)CN(C(=O)Nc1nc(-c3ccc(F)cc3F)ccc1N)C2 [Compound 9] |  | 0.5 to 5 µM | 40.4%
5 | CCc1cc2c(cn1)CN(C(=O)Nc1nc(-c3cccnc3)ccc1N)C2 [Compound 8] | 0.5 to 5 µM | 0.5 to 5 µM | 98%
6 | Cc1ncc(-c2ccc(N)c(NC(=O)N3Cc4cn(CC(F)F)nc4C3)n2)s1 [Compound 5] |  | 0.5 to 5 µM | 
7 | Cc1ncc2c(n1)CN(C(=O)Nc1nc(-c3ccc(F)cc3)ccc1N)C2 [Compound 14] |  | 0.5 to 5 µM | 53%
8 | Cc1cc2c(cn1)CN(C(=O)Nc1nc(-c3cccnc3)ccc1N)C2 [Compound 12] |  |  | 93%
9 | Cc1ncc2c(n1)CN(C(=O)Nc1nc(-c3ccc(F)s3)ccc1N)C2 [Compound 2] |  | 0.5 to 5 µM | 40%
